These results are taken from paper PMC7058083, “Structural basis of ligand binding modes at the human formyl peptide receptor 2” (Nature Communications, 2020).

SMILES strings stand for the structures. Substitutions are numbered along the chain they refer to. Residues, ends and D or L forms follow the SMILES beside them. *: point of attachment. For = O=C*

Test in all cases: Competition binding of fMLFK with WK(FITC)YMVm, flow cytometry on HEK293F cells
Background: A flow cytometer gives signals particle by particle.

Test [1] has as its target T1, wild-type (WT) and mutant FPR2 (Homo sapiens, UniProt P25090, D281G).
T1 construct: expressed in transfected cells; host or cells: HEK293F
T1 sequence (P25090 1-351 D281G): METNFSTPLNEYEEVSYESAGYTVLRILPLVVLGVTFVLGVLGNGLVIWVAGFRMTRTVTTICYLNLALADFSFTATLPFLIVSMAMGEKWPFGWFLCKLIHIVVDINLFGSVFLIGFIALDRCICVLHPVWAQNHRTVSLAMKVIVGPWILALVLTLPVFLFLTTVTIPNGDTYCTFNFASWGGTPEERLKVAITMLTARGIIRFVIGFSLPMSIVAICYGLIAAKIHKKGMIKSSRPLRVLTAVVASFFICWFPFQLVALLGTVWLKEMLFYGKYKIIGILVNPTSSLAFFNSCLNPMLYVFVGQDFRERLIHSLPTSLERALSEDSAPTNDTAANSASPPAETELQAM
The settings on record: FPR2 D281G; mean ± s.e.m., n=3; SEM. As for the experimental part: (§1) Flag-tagged wild-type and mutant FPR2s were cloned into the pTT5 vector and expressed in HEK293F cells. The cells were harvested, and washed with Hanks’ Balanced Salt Solution (HBSS) buffer supplemented with 0.5% bovine serum albumin and 20 mM HEPES, pH 7.4. The cells were then resuspended in the same buffer to the final concentration of 1 × 10^6 cells per ml. The cell-surface expression was measured as mentioned above. […] Mean fluorescent intensity of each well was then read by a FCM (flow cytometry) reader (Millipore). […] For competitive binding of fMLFK, cells were plated in 96-well plates (100,000 cells per well), and incubated with WK(FITC)YMVm at 4 °C for 1 h. The following concentrations of WK(FITC)YMVm were used: 10 nM (wild type, L81^2.60F, E89G, and V105^3.32A), 30 nM (D281^7.32G), 40 nM (H102^3.29F, V160^4.60A, L268^ECL3A, N285^7.36A, and F292^7.43A), and 100 nM (L164^4.64A and T177A). Then increasing concentrations of fMLFK (100 nM–1 mM) were added, and incubated for another 1 h on ice. Mean fluorescent intensity values were measured by flow cytometry. Data were analyzed using Prism 7.0.

Test [2] deals with T2, wild-type (WT) and mutant FPR2 (Homo sapiens, UniProt P25090, F292A).
T2 construct: expressed in transfected cells; host or cells: HEK293F
T2 sequence (P25090 1-351 F292A): T1 sequence (P25090 1-351 D281G) with G281D, F292A
The settings on record: FPR2 F292A; mean ± s.e.m., n=3; SEM. As for the experimental part:
as §1

Test [3] concerns the target T3, wild-type (WT) and mutant FPR2 (Homo sapiens, UniProt P25090, H102F).
T3 construct: expressed in transfected cells; host or cells: HEK293F
T3 sequence (P25090 1-351 H102F): T1 sequence (P25090 1-351 D281G) with H102F, G281D
The settings on record: FPR2 H102F; mean ± s.e.m., n=3; SEM. As for the experimental part:
as §1

For test [4], the target named is T4, wild-type (WT) and mutant FPR2 (Homo sapiens, UniProt P25090, V105A).
T4 construct: expressed in transfected cells; host or cells: HEK293F
T4 sequence (P25090 1-351 V105A): T1 sequence (P25090 1-351 D281G) with V105A, G281D
The settings on record: FPR2 V105A; mean ± s.e.m., n=3; SEM. As for the experimental part: as §1

On to `CSCC[C@H](NC=O)C(=O)N[C@@H](CC(C)C)C(=O)N[C@@H](Cc1ccccc1)C(=O)N[C@@H](CCCCN)C(=O)O` [fMLFK] (For-MLFK-OH), for which the “pKi, competition binding” value was found to be 4.66 ± 0.16 in test [1], 4.54 ± 0.11 in test [2], 3.85 ± 0.24 in test [3] and 4.56 ± 0.21 in test [4].
